Key:
[1] = system: Echinochloa oryzoides (Ard.) Fritsch.; assay: Preemergence weed control under flooded paddy conditions, ECHORC (Watergrass (Calif.)); format: in vivo; settings: preemergence, flooded paddy; for herbicidal effect rating, ECHORC: rated 3-4 weeks after treatment; for ECHORC herbicidal effect rating: rated three to four weeks after treatment
[2] = system: Cyperus iria; assay: Preemergence weed control under flooded paddy conditions, CYPIR (Rice Flatsedge); format: in vivo; settings: preemergence, flooded paddy; for herbicidal effect rating, CYPIR: rated 3-4 weeks after treatment; for CYPIR herbicidal effect rating: rated three to four weeks after treatment
[3] = system: Cyperus serotinus, Rottb.; assay: Preemergence weed control under flooded paddy conditions, CYPSE (Flatsedge); format: in vivo; settings: preemergence; for herbicidal effect rating, CYPSE: rated 3-4 weeks after treatment; for CYPSE herbicidal effect rating: rated three to four weeks after treatment
[4] = system: Monochoria vaginalis, Presl.; assay: Preemergence weed control under flooded paddy conditions, MOOVA (Monochoria); format: in vivo; settings: preemergence, flooded paddy; for herbicidal effect rating, MOOVA: rated 3-4 weeks after treatment; for MOOVA herbicidal effect rating: rated three to four weeks after treatment
[5] = system: Sagittaria pygmaea, L.; assay: Preemergence weed control under flooded paddy conditions, SAGPY (Arrowhead (Pygmaea)); format: in vivo; settings: preemergence, flooded paddy; for herbicidal effect rating, SAGPY: rated 3-4 weeks after treatment; for SAGPY herbicidal effect rating: rated three to four weeks after treatment
[6] = system: Oryza sativa, (L.) Tebonnet; assay: Rice tolerance to post-transplant applications under flooded paddy conditions (Example 187), ORYSAT (Rice, Tebonnet); settings: for herbicidal effect rating ORYSAT: rated 3-4 weeks after treatment; for ORYSAT herbicidal effect rating: rated three to four weeks after treatment; for herbicidal effect rating ORYSAT: meaning of each grade not given here

Structure (SMILES): C=CCOC(=O)C(C)(C)Oc1ccc(C)cc1-c1nsc2ccc(-n3c(=O)cc(C(F)(F)F)n(C)c3=O)cc12 [Example 530, Propionic acid, 2-{{2-{5-[3,6-dihydro-3-methyl-2,6-dioxo-4-(trifluoromethyl)-1(2H)-pyrimidinyl]-1,2-benzisothiazol-3-yl}-p-tolyl}oxy}-2-methyl-, allyl ester]
- herbicidal effect rating, ECHORC ([1]; Rate 0.0320 kg/ha): 9.0
- herbicidal effect rating, ECHORC ([1]; Rate 0.0620 kg/ha): 9.0
- herbicidal effect rating, ECHORC ([1]; Rate 0.1250 kg/ha): 9.0
- herbicidal effect rating, ECHORC ([1]; Rate 0.2500 kg/ha): 9.0
- herbicidal effect rating, CYPIR ([2]; Rate 0.0320 kg/ha): 0.0
- herbicidal effect rating, CYPIR ([2]; Rate 0.0620 kg/ha): 9.0
- herbicidal effect rating, CYPIR ([2]; Rate 0.1250 kg/ha): 9.0
- herbicidal effect rating, CYPIR ([2]; Rate 0.2500 kg/ha): 9.0
- herbicidal effect rating, CYPSE ([3]; Rate 0.0320 kg/ha): 0.0
- herbicidal effect rating, CYPSE ([3]; Rate 0.0620 kg/ha): 0.0
- herbicidal effect rating, CYPSE ([3]; Rate 0.1250 kg/ha): 0.0
- herbicidal effect rating, CYPSE ([3]; Rate 0.2500 kg/ha): 0.0
- herbicidal effect rating, MOOVA ([4]; Rate 0.0320 kg/ha): 9.0
- herbicidal effect rating, MOOVA ([4]; Rate 0.0620 kg/ha): 9.0
- herbicidal effect rating, MOOVA ([4]; Rate 0.1250 kg/ha): 9.0
- herbicidal effect rating, MOOVA ([4]; Rate 0.2500 kg/ha): 9.0
- herbicidal effect rating, SAGPY ([5]; Rate 0.0320 kg/ha): 0.0
- herbicidal effect rating, SAGPY ([5]; Rate 0.0620 kg/ha): 0.0
- herbicidal effect rating, SAGPY ([5]; Rate 0.1250 kg/ha): 3.0
- herbicidal effect rating, SAGPY ([5]; Rate 0.2500 kg/ha): 9.0
- herbicidal effect rating ORYSAT ([6]; Rate 0.0320 kg/ha): 0.0
- herbicidal effect rating ORYSAT ([6]; Rate 0.0620 kg/ha): 0.0
- herbicidal effect rating ORYSAT ([6]; Rate 0.1250 kg/ha): 3.0
- herbicidal effect rating ORYSAT ([6]; Rate 0.2500 kg/ha): 9.0

Structure (SMILES): Cc1ccc(OC(C)C(=O)c2ccc(C)c(C)c2)c(-c2nsc3ccc(-n4c(=O)cc(C(F)(F)F)n(C)c4=O)cc23)c1 (centres unmarked) [Example 542, 2,4(1H,3H)-Pyrimidinedione, 3-{3-{6-[1-(3,4-dimethylbenzoyl)ethoxy]-m-tolyl}-1,2-benzisothiazol-5-yl}-1-methyl-6-(trifluoromethyl)-]
- herbicidal effect rating, ECHORC ([1]; Rate 0.0320 kg/ha): 1.7
- herbicidal effect rating, ECHORC ([1]; Rate 0.0620 kg/ha): 2.7
- herbicidal effect rating, ECHORC ([1]; Rate 0.1250 kg/ha): 4.3
- herbicidal effect rating, ECHORC ([1]; Rate 0.2500 kg/ha): 8.0
- herbicidal effect rating, ECHORC ([1]; Rate 0.5000 kg/ha): 9.0
- herbicidal effect rating, CYPIR ([2]; Rate 0.0320 kg/ha): 0.0
- herbicidal effect rating, CYPIR ([2]; Rate 0.0620 kg/ha): 0.0
- herbicidal effect rating, CYPIR ([2]; Rate 0.1250 kg/ha): 2.0
- herbicidal effect rating, CYPIR ([2]; Rate 0.2500 kg/ha): 4.0
- herbicidal effect rating, CYPIR ([2]; Rate 0.5000 kg/ha): 9.0
- herbicidal effect rating, CYPSE ([3]; Rate 0.0320 kg/ha): 0.0
- herbicidal effect rating, CYPSE ([3]; Rate 0.0620 kg/ha): 0.0
- herbicidal effect rating, CYPSE ([3]; Rate 0.1250 kg/ha): 0.0
- herbicidal effect rating, CYPSE ([3]; Rate 0.5000 kg/ha): 0.0
- herbicidal effect rating, MOOVA ([4]; Rate 0.0320 kg/ha): 7.0
- herbicidal effect rating, MOOVA ([4]; Rate 0.0620 kg/ha): 9.0
- herbicidal effect rating, MOOVA ([4]; Rate 0.1250 kg/ha): 9.0
- herbicidal effect rating, MOOVA ([4]; Rate 0.2500 kg/ha): 9.0
- herbicidal effect rating, MOOVA ([4]; Rate 0.5000 kg/ha): 9.0
- herbicidal effect rating, SAGPY ([5]; Rate 0.0320 kg/ha): 0.0
- herbicidal effect rating, SAGPY ([5]; Rate 0.0620 kg/ha): 0.0
- herbicidal effect rating, SAGPY ([5]; Rate 0.1250 kg/ha): 0.0
- herbicidal effect rating, SAGPY ([5]; Rate 0.2500 kg/ha): 0.0
- herbicidal effect rating, SAGPY ([5]; Rate 0.5000 kg/ha): 9.0
- herbicidal effect rating ORYSAT ([6]; Rate 0.0320 kg/ha): 0.0
- herbicidal effect rating ORYSAT ([6]; Rate 0.0620 kg/ha): 0.0
- herbicidal effect rating ORYSAT ([6]; Rate 0.1250 kg/ha): 0.0
- herbicidal effect rating ORYSAT ([6]; Rate 0.2500 kg/ha): 0.0
- herbicidal effect rating ORYSAT ([6]; Rate 0.5000 kg/ha): 2.0

Structure (SMILES): Cn1c(C(F)(F)F)cc(=O)n(-c2ccc3snc(C(C)(C)C#N)c3c2)c1=O [Example 256, 1,2-Benzisothiazole-3-acetonitrile, 5-[3,6-dihydro-3-methyl-2,6-dioxo-4-(trifluoromethyl)-1(2H)-pyrimidinyl)-alpha,alpha-dimethyl-]
- ECHORC herbicidal effect rating ([1]; Rate 0.0320 kg/ha): 1.0
- ECHORC herbicidal effect rating ([1]; Rate 0.0620 kg/ha): 3.0
- ECHORC herbicidal effect rating ([1]; Rate 0.1250 kg/ha): 7.0
- ECHORC herbicidal effect rating ([1]; Rate 0.2500 kg/ha): 9.0
- CYPIR herbicidal effect rating ([2]; Rate 0.0320 kg/ha): 8.0
- CYPIR herbicidal effect rating ([2]; Rate 0.0620 kg/ha): 9.0
- CYPIR herbicidal effect rating ([2]; Rate 0.1250 kg/ha): 9.0
- CYPIR herbicidal effect rating ([2]; Rate 0.2500 kg/ha): 9.0
- CYPSE herbicidal effect rating ([3]; Rate 0.0320 kg/ha): 0.0
- CYPSE herbicidal effect rating ([3]; Rate 0.0620 kg/ha): 2.0
- CYPSE herbicidal effect rating ([3]; Rate 0.1250 kg/ha): 6.0
- CYPSE herbicidal effect rating ([3]; Rate 0.2500 kg/ha): 9.0
- MOOVA herbicidal effect rating ([4]; Rate 0.0320 kg/ha): 8.0
- MOOVA herbicidal effect rating ([4]; Rate 0.0620 kg/ha): 9.0
- MOOVA herbicidal effect rating ([4]; Rate 0.1250 kg/ha): 9.0
- MOOVA herbicidal effect rating ([4]; Rate 0.2500 kg/ha): 9.0
- SAGPY herbicidal effect rating ([5]; Rate 0.0320 kg/ha): 0.0
- SAGPY herbicidal effect rating ([5]; Rate 0.0620 kg/ha): 0.0
- SAGPY herbicidal effect rating ([5]; Rate 0.1250 kg/ha): 4.0
- SAGPY herbicidal effect rating ([5]; Rate 0.2500 kg/ha): 8.0
- ORYSAT herbicidal effect rating ([6]; Rate 0.0320 kg/ha): 6.0
- ORYSAT herbicidal effect rating ([6]; Rate 0.0620 kg/ha): 8.0
- ORYSAT herbicidal effect rating ([6]; Rate 0.1250 kg/ha): 8.0
- ORYSAT herbicidal effect rating ([6]; Rate 0.2500 kg/ha): 9.0
